“Also recorded” adds a separate entry of the source.
Tests used:
[1] = test system: patients with opioid use disorder (DSM-5 moderate to severe) using opioids for at least three months; assay: Medical chart review of a fifteen-patient outpatient neurology cohort whose opioids were replaced with low-dose Lyrica (pregabalin); assay type: in vivo, human
Procedure: Summary of Experimental Results: Over the span of several years, the present inventor, who is a practicing neurologist, tested various different drugs at varying doses in an attempt to assist patients in their outpatient general neurological practice with cessation of opioid use. Through extensive experimentation, the physician discovered that 25 mg of Lyrica (pregabalin) T.I.D. successfully replaced opioids in a few of their patients, they subsequently expanded their research to other patients.
The charts for the fifteen (15) patients of this cohort were evaluated to ascertain the date that pregabalin was initiated, and the starting dose; the pregabalin dose as of the last available medical record; concomitant pain/CNS medications and concomitant non-pain/CNS medications; records of opioid use, type of opioid and dose (when available); and the temporal relationship between starting pregabalin and no longer requiring opioids. The medications in patient charts were compared with the accompanying medication list for each patient. As these were medical charts, the review was conducted to the extent that information was available.
Diagnosis of opioid use disorder: As a part of the medical chart review, the investigating physician assessed the fifteen (15) patients against the DSM-5 diagnostic criteria for OUD, defined “ . . . as a problematic pattern of opioid use leading to clinically significant impairment or distress, as manifested by at least two (2) pre-defined symptoms.” These criteria include eleven symptoms or behaviors occurring within a 12-month period. A diagnosis of mild OUD requires the presence of 2-3 symptoms, moderate 4-5 symptoms, and severe 6 or more symptoms. Of the fifteen (15) patients, seven (7) had scores in the moderate range and eight (8) had scores in the severe range.

neuropathic pain = settings: doses of up to 150 mg a day; cited from earlier work

Structure (SMILES): CC(C)C[C@H](CN)CC(=O)O [pregabalin, (S)-(+)-3-aminomethyl-5-methyl-hexanoic acid]
- patients for whom opioids were successfully replaced ([1]; 25 mg Lyrica (pregabalin) T.I.D., patients had been using opioids for at least three months, cohort of 15): 15 patients
- cravings for opioids ([1]; each of the fifteen patients, low-dose pregabalin): complete cessation of cravings for opioids
- side effects or withdrawal symptoms ([1]; fifteen patients, opioids replaced with low-dose pregabalin): no reported side effects or withdrawal symptoms; also recorded: none of the fifteen (15) patients experienced side effects or withdrawal symptoms
- patients who decreased their opioids temporally related to (after) starting pregabalin ([1]; of fifteen patients): 2 patients
- patients who stopped or decreased their opioids temporally related to (after) starting pregabalin ([1]; of fifteen patients, chart review): ≥ 7 patients
- patients who stopped their opioids temporally related to (after) starting pregabalin ([1]; of fifteen patients, one continued tramadol 50 mg Q.I.D. prn): 5 patients
- patients who elected to return to opioids for other reasons ([1]; of the fifteen-patient cohort, also effectively cured of cravings): 2 patients
- remaining patients, none of whom returned to opioids within the observation period ([1]; of the fifteen-patient cohort, opioids replaced with low doses of Lyrica (pregabalin)): 13 patients
- patients started on pregabalin who stopped or decreased their use of opioids (total) ([1]; of the patient charts reviewed (fifteen)): ≥ 11 patients
- patients who stopped their opioids while on pregabalin, relative timing not definitively established ([1]; of the remaining eight patients): 4 patients
- efficacy for the indicated treatment of neuropathic pain (neuropathic pain): consistently ineffective

Source: patent US20240139135A1, “[…] TREATMENT OF OPIOID USE DISORDER” (THE TRUSTEES OF INDIANA UNIVERSITY, priority 2019, published 2024)
